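96-well plates; 48 h exposure; 5 concentrations. Endpoints by linear interpolation between flanking doses. Not reached: highest tested concentration assigned. GI50 = concentration required for 50% inhibition of growth.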 Active and inactive are the calls of the source. Cut-off read from the data, not from the text of the source: active = GI50 up to about 1.1 µM and inactive = higher.
How the values were obtained:
Test in all cases: NCI anticancer screen, dose series, 48 h
BT-549 = test system: BT-549
EKVX = test system: EKVX
HCT-116 = test system: HCT-116
HOP-62 = test system: HOP-62
LOX IMVI = test system: LOX IMVI
MCF7 = test system: MCF7
NCI-H460 = test system: NCI-H460
NCI/ADR-RES = test system: NCI/ADR-RES
OVCAR-3 = test system: OVCAR-3
OVCAR-4 = test system: OVCAR-4
SF-295 = test system: SF-295
SF-539 = test system: SF-539
SK-MEL-28 = test system: SK-MEL-28
SK-OV-3 = test system: SK-OV-3
SN12C = test system: SN12C
SNB-75 = test system: SNB-75
UACC-257 = test system: UACC-257
UO-31 = test system: UO-31
T47D = test system: T47D
SR = test system: SR

Measured: GI50

CC1(C)CC(=O)C2=C(C1)NC(=S)C(C#N)C2c1ccccc1 (stereo not given)
inactive: BT-549 > 100 µM | EKVX > 100 µM | HCT-116 > 100 µM | HOP-62 > 100 µM | LOX IMVI > 100 µM | MCF7 > 100 µM | NCI-H460 > 100 µM | NCI/ADR-RES > 100 µM | OVCAR-3 > 100 µM | OVCAR-4 > 100 µM | SF-295 > 100 µM | SF-539 > 100 µM | SK-MEL-28 > 100 µM | SK-OV-3 > 100 µM | SN12C > 100 µM | SNB-75 > 100 µM | UACC-257 > 100 µM | UO-31 > 100 µM

O=C1NC(N/N=C/c2ccccc2)=N/C1=C\c1ccco1
inactive: BT-549 23.7 µM | EKVX 36.7 µM | HCT-116 42.9 µM | HOP-62 19.8 µM | MCF7 40.2 µM | NCI-H460 20.7 µM | NCI/ADR-RES 32.7 µM | OVCAR-3 33.8 µM | OVCAR-4 38.5 µM | SF-295 33.1 µM | SK-MEL-28 51.8 µM | SK-OV-3 54.2 µM | SN12C 35.6 µM | SNB-75 47.8 µM | T47D 26.9 µM | UACC-257 > 100 µM | UO-31 46.8 µM

CCOC(=O)c1cc2nc3ccccc3c(=O)n2c2ccccc12
inactive: BT-549 > 10 µM | EKVX > 10 µM | HCT-116 > 10 µM | HOP-62 > 10 µM | LOX IMVI > 10 µM | MCF7 > 10 µM | NCI-H460 > 10 µM | NCI/ADR-RES > 10 µM | OVCAR-3 > 10 µM | OVCAR-4 > 10 µM | SF-295 > 10 µM | SF-539 > 10 µM | SK-MEL-28 > 10 µM | SK-OV-3 > 10 µM | SN12C > 10 µM | SNB-75 6.32 µM | T47D > 10 µM | UACC-257 > 10 µM | UO-31 > 10 µM

C#CCOC(=O)C(N)C(C)O (stereo not given)
inactive: BT-549 > 100 µM | EKVX > 100 µM | HCT-116 > 100 µM | HOP-62 > 100 µM | LOX IMVI > 100 µM | MCF7 > 100 µM | NCI/ADR-RES > 100 µM | OVCAR-3 > 100 µM | SF-295 > 100 µM | SK-MEL-28 > 100 µM | SK-OV-3 > 100 µM | SN12C > 100 µM | SNB-75 > 100 µM | T47D > 100 µM | UACC-257 > 100 µM | UO-31 > 100 µM

Nc1ncnc2c1ncn2Cc1cccc(CCl)c1
inactive: BT-549 12.8 µM | EKVX 19.3 µM | HCT-116 10.4 µM | HOP-62 12.7 µM | LOX IMVI 20.1 µM | MCF7 10 µM | NCI-H460 14.2 µM | NCI/ADR-RES 18.5 µM | OVCAR-3 14.1 µM | OVCAR-4 20.3 µM | SF-295 15.9 µM | SF-539 14.8 µM | SK-MEL-28 19.8 µM | SN12C 15.1 µM | SNB-75 30.1 µM | SR 6.43 µM | UACC-257 14.8 µM | UO-31 16.5 µM

COC(=O)C12C(=O)CC3CCC1C32C(=O)OC (stereo not given)
inactive: BT-549 > 100 µM | EKVX > 100 µM | HCT-116 > 100 µM | HOP-62 > 100 µM | LOX IMVI > 100 µM | MCF7 > 100 µM | NCI-H460 > 100 µM | NCI/ADR-RES > 100 µM | OVCAR-3 > 100 µM | OVCAR-4 > 100 µM | SF-295 > 100 µM | SF-539 > 100 µM | SK-MEL-28 > 100 µM | SK-OV-3 > 100 µM | SN12C > 100 µM | SNB-75 > 100 µM | SR > 100 µM | UACC-257 > 100 µM | UO-31 > 100 µM

CCCCn1c(C)c2c(c1C)C(=O)N(CC(O)CN1CCc3ccccc3C1)C2=O (stereo not given)
inactive: BT-549 > 100 µM | EKVX 12.3 µM | HCT-116 47.9 µM | HOP-62 > 100 µM | LOX IMVI 49.7 µM | MCF7 33.3 µM | NCI-H460 86.7 µM | NCI/ADR-RES 59.7 µM | OVCAR-3 67.8 µM | OVCAR-4 56.9 µM | SF-295 42.4 µM | SF-539 69.8 µM | SK-MEL-28 > 100 µM | SK-OV-3 > 100 µM | SN12C 90.4 µM | SNB-75 > 100 µM | T47D 35.6 µM | UACC-257 33.4 µM | UO-31 59 µM

CC(=O)OC(Cn1cncn1)(Cn1cncn1)c1ccc(Cl)cc1Cl
inactive: BT-549 > 100 µM | EKVX > 100 µM | HOP-62 > 100 µM | LOX IMVI > 100 µM | MCF7 > 100 µM | NCI-H460 > 100 µM | NCI/ADR-RES > 100 µM | OVCAR-3 > 100 µM | OVCAR-4 > 100 µM | SF-295 > 100 µM | SF-539 > 100 µM | SK-MEL-28 > 100 µM | SK-OV-3 > 100 µM | SNB-75 > 100 µM | T47D > 100 µM | UACC-257 > 100 µM | UO-31 > 100 µM

CCC/C=C/C=C/C1CC(O)C(O)C(=O)C1CO (stereo not given)
inactive: BT-549 > 100 µM | EKVX > 100 µM | HCT-116 > 100 µM | LOX IMVI > 100 µM | MCF7 > 100 µM | NCI-H460 > 100 µM | NCI/ADR-RES > 100 µM | OVCAR-3 21.6 µM | OVCAR-4 > 100 µM | SF-295 > 100 µM | SF-539 > 100 µM | SK-MEL-28 > 100 µM | SK-OV-3 > 100 µM | SN12C > 100 µM | SNB-75 > 100 µM | T47D > 100 µM | UACC-257 > 100 µM | UO-31 > 100 µM

O=C(c1cccs1)N(C(=O)N1CCCCC1)c1ccccc1
inactive: BT-549 > 100 µM | EKVX 14.8 µM | HCT-116 > 100 µM | LOX IMVI > 100 µM | MCF7 > 100 µM | NCI/ADR-RES > 100 µM | OVCAR-3 > 100 µM | SF-295 > 100 µM | SF-539 > 100 µM | SK-MEL-28 > 100 µM | SK-OV-3 > 100 µM | SN12C > 100 µM | SNB-75 3.28 µM | T47D > 100 µM | UACC-257 > 100 µM | UO-31 62.8 µM

COc1cc2c(cc1OC)C(=O)/C(=C/c1cc(Cl)cc(Cl)c1)C2
inactive: BT-549 7.26 µM | EKVX 19.8 µM | HCT-116 3.58 µM | HOP-62 9.35 µM | LOX IMVI 4.24 µM | MCF7 2.99 µM | NCI-H460 4.73 µM | NCI/ADR-RES 1.76 µM | OVCAR-3 3.33 µM | OVCAR-4 17.1 µM | SF-295 2.49 µM | SF-539 2.49 µM | SK-MEL-28 61.7 µM | SN12C 5.93 µM | SNB-75 1.86 µM | T47D 7.4 µM | UACC-257 26 µM | UO-31 > 100 µM

Source: ChEMBL document CHEMBL1201862, “PubChem BioAssay data set” (2004)
